# Measurements from PMC11479946, “Coupling enzymatic activity and gating in an ancient TRPM chanzyme and its molecular evolution” (Nature Structural & Molecular Biology, 2024).
# What was measured:
# srTRPM2 [1] = target: T1, srTRPM2 (Salpingoeca rosetta, UniProt F2UB89, F268A); experiment: inside-out patch clamp, tsA201 cells, +[…] mV; format: biochemical; conditions: Ca2+ with ADPR; MHR1/2 site; no activation
# T1 construct: gene PTSG_05449; full length; N-terminal TwinStrepII-His8-eGFP tag (thrombin-cleaved for enzyme assays and nanodiscs); expressed in tsA201 cells; homotetramer, GDN detergent or nanodisc
# srTRPM2 [2] = target: T2, srTRPM2 (Salpingoeca rosetta, UniProt F2UB89, R275A); experiment: inside-out patch clamp, tsA201 cells, +[…] mV; format: biochemical; conditions: Ca2+ with ADPR; MHR1/2 site; no activation; reduced expression level
# T2 construct: gene PTSG_05449; full length; N-terminal TwinStrepII-His8-eGFP tag (thrombin-cleaved for enzyme assays and nanodiscs); expressed in tsA201 cells; homotetramer, GDN detergent or nanodisc
# srTRPM2 [3] = target: T3, srTRPM2 (Salpingoeca rosetta, UniProt F2UB89); experiment: HPLC fluorescence of etheno-AMP, Michaelis-Menten fit; format: biochemical; conditions: 10 mM MgCl2 final, TBS-GDN, 25 °C; all buckle helix residues mutated to alanine, positions not given
# T3 construct: gene PTSG_05449; full length; N-terminal TwinStrepII-His8-eGFP tag (thrombin-cleaved for enzyme assays and nanodiscs); expressed in tsA201 cells; homotetramer, GDN detergent or nanodisc
# [4] = target: T4, srNUDT9-H (isolated domain) (Salpingoeca rosetta, UniProt F2UB89); experiment: as above; format: biochemical; conditions: 10 mM MgCl2 final, TBS-GDN, 25 °C
# T4 construct: gene PTSG_05449; TwinStrepII-His8-eGFP tag, TEV-cleaved; expressed in tsA201 cells; monomeric
# srTRPM2 [5] = target: T3, srTRPM2; experiment: as above; format: biochemical; conditions: 10 mM MgCl2 final, TBS-GDN, 25 °C; buckle helix truncated, borders not given
# [6] = target: Salpingoeca rosetta TRPM2 chanzyme, wild type, full length (Salpingoeca rosetta); experiment: cryo-EM structure; purified protein in GDN or nanodisc with CaCl2–ADPR (1:1 mM), MgCl2–AMP–R5P (10:1:1 mM) or MgCl2–ADPR (10:1 mM; 5 s, 10 s or 4 min); fully ligand-bound states; NUDT9-H layer tetramerised via the buckle helix
# [7] = target: Salpingoeca rosetta TRPM2 chanzyme, wild type, full length (Salpingoeca rosetta); experiment: cryo-EM structure; purified protein with EDTA (1 mM), CaCl2 (1 mM), MgCl2 (10 mM) or EDTA–ADPR (1:1 mM), 30 min; apo or partially ligand-bound states; C4 symmetry; NUDT9-H domains flexible, not tetramerised
# [8] = target: srTRPM2–E1114A (Salpingoeca rosetta); experiment: cryo-EM structure; purified protein in GDN or nanodisc with CaCl2–ADPR (1:1 mM), MgCl2–AMP–R5P (10:1:1 mM) or MgCl2–ADPR (10:1 mM; 5 s, 10 s or 4 min); fully ligand-bound states; NUDT9-H layer tetramerised via the buckle helix
# [9] = target: srTRPM2–ΔNUDT9-H (Salpingoeca rosetta) (UniProt F2UB89); experiment: as above
# [10] = target: srTRPM2–ΔNUDT9-H (Salpingoeca rosetta) (UniProt F2UB89); experiment: cryo-EM structure; purified protein with EDTA (1 mM), CaCl2 (1 mM), MgCl2 (10 mM) or EDTA–ADPR (1:1 mM), 30 min; apo or partially ligand-bound states; C4 symmetry; NUDT9-H domains flexible, not tetramerised
# T3 sequence (F2UB89 entry or part of it): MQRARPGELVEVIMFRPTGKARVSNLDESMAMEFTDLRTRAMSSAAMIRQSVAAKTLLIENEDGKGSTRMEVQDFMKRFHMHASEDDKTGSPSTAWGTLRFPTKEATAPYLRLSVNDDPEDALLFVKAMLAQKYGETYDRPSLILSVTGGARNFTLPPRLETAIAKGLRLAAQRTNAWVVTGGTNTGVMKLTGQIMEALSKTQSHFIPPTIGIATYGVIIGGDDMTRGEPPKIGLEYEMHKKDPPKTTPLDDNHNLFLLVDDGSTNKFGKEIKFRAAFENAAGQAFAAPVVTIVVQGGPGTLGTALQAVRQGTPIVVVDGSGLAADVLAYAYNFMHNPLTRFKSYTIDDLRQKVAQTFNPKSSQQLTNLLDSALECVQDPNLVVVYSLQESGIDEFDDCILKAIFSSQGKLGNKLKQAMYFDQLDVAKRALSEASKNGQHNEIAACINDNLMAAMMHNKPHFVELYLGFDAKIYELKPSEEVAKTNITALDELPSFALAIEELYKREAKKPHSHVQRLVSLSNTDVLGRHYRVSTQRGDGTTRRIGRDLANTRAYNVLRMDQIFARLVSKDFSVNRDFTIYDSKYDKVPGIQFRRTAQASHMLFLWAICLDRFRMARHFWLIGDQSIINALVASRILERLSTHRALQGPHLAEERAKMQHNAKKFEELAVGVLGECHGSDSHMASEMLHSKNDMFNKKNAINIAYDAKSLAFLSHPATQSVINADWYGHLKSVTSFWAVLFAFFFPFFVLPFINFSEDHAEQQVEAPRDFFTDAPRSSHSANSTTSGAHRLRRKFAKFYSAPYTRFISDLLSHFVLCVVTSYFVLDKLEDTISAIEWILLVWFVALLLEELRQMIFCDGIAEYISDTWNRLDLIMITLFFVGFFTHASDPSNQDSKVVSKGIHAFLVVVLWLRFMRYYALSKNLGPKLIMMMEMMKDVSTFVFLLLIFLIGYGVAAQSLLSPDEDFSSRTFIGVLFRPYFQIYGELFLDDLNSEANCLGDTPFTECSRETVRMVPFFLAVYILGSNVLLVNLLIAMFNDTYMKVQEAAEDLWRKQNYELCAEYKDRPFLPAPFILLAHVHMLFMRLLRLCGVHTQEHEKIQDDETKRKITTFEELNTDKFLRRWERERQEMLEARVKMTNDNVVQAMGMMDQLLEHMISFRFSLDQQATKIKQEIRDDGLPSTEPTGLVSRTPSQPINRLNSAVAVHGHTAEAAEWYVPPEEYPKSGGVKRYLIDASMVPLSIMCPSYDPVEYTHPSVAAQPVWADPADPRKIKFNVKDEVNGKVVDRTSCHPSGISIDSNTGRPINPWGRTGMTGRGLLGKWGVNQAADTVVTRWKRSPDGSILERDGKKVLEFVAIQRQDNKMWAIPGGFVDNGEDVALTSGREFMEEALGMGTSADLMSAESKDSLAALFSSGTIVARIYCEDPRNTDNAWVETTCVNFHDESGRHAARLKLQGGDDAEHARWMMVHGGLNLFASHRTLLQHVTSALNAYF
# T2 sequence (F2UB89 entry or part of it R275A): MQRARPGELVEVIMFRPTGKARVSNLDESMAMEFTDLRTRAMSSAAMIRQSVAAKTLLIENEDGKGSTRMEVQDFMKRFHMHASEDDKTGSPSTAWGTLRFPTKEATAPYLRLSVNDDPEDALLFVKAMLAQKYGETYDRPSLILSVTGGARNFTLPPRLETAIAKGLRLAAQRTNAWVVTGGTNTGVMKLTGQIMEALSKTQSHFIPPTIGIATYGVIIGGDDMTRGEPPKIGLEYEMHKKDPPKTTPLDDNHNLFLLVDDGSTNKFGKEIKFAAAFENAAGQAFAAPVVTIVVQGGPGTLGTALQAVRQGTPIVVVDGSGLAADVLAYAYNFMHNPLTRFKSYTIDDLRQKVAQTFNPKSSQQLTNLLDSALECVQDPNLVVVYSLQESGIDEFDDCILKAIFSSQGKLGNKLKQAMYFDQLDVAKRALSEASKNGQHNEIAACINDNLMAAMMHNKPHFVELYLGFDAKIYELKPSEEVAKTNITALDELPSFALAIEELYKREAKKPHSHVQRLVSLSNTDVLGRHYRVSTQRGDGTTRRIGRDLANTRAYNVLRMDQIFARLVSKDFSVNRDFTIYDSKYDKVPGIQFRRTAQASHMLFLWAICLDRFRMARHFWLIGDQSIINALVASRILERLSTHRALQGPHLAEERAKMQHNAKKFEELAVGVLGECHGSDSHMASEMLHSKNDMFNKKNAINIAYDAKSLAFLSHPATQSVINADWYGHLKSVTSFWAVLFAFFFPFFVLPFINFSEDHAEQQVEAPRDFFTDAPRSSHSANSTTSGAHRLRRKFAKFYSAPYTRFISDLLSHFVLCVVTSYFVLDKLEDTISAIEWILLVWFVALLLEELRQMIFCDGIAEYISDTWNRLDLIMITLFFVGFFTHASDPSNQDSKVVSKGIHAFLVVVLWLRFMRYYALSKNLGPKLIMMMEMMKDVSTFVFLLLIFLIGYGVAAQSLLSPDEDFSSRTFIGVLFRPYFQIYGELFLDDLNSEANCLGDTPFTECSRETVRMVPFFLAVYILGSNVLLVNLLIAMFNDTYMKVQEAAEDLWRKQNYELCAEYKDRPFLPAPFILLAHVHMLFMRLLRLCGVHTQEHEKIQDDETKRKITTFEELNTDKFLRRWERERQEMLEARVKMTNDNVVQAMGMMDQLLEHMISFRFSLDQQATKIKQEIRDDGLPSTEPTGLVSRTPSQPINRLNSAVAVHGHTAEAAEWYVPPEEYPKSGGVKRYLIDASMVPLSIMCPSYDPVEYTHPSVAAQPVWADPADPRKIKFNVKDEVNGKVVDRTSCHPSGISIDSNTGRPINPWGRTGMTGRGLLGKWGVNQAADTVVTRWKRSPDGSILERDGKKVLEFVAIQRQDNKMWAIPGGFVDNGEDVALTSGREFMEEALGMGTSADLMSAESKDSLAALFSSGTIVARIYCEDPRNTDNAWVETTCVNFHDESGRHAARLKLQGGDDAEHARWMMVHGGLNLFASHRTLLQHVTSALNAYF
# T4 sequence (F2UB89 entry or part of it): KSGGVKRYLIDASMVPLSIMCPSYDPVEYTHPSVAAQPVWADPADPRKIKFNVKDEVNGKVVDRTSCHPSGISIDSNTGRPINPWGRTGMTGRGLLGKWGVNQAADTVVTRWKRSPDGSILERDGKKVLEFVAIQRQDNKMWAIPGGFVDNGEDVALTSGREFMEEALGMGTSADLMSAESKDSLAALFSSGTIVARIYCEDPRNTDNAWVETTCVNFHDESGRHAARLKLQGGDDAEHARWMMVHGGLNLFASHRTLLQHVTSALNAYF
# T1 sequence (F2UB89 entry or part of it F268A): as the sequence (F2UB89 entry or part of it R275A) above, with F268A, A275R counted along it
compound,measurement,setting,value
Nc1ncnc2c1ncn2[C@@H]1O[C@H](COP(=O)(O)OP(=O)(O)OC[C@H]2OC(O)[C@H](O)[C@@H]2O)[C@@H](O)[C@H]1O (stereo partly shown) [ADPR],"inside-out patch clamp, tsA201 cells, +60 mV",srTRPM2 [1],Replacement of either of these residues with alanine rendered srTRPM2 insensitive to ADPR
same,"inside-out patch clamp, tsA201 cells, +60 mV",srTRPM2 [2],Replacement of either of these residues with alanine rendered srTRPM2 insensitive to ADPR
same,KM,srTRPM2 [3],srTRPM2 with the buckle helix residues replaced by alanine (BH2A)
same,KM,[4],representing the rate of ADPR hydrolysis by the isolated srNUDT9-H domain
same,KM,srTRPM2 [5],srTRPM2 lacking the buckle helix (ΔBH)
"Salpingoeca rosetta TRPM2 chanzyme, wild type, full length (natural protein)",stoichiometry N,[6],4
same,stoichiometry N,[7],4
srTRPM2–E1114A (natural protein),stoichiometry N,[8],4
srTRPM2–ΔNUDT9-H (from UniProt F2UB89 1-1214) (domain or fragment),stoichiometry N,[9],4
same,stoichiometry N,[10],4
